The record followed here is article PMC5943542, “Targeting LMW‐PTP to sensitize melanoma cancer cells toward chemo‐ and radiotherapy” (Cancer Medicine, 2018).

The target of this assay is T1, LMW-PTP (recombinant isoforms IF-A and IF-B) (Homo sapiens, UniProt P24666).
T1 construct: gene ACP1; purified recombinant human LMW-PTP, isoform A (IF-A) and isoform B (IF-B)
T1 sequence (P24666 2-158): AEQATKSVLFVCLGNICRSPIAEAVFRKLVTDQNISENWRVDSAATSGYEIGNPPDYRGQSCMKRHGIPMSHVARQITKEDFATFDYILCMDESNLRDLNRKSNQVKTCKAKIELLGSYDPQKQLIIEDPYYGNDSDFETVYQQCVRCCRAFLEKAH
Nature of the assay: p-nitrophenylphosphate hydrolysis kinetics with purified recombinant enzyme, double reciprocal plots. Format: biochemical.

For `O=c1c(O)c(-c2ccc(O)cc2O)oc2cc(O)cc(O)c12` [Morin], the Ki result is on record as “micromolar range”.
